The subject of one data set is conscious rats. The experiment in a line: Gastric emptying and gastrointestinal transit in conscious rats (barium sulfate test meal). The note with it: Wistar rats, p.o. 30 min before test meal; for gastric emptying compared to negative control / intestinal transit compared to negative control: all tested doses up to the 30-fold ED50 dose. The class given is in vivo, rat. The method, then: In order to evaluate whether the compounds of the present invention lead to gastrointestinal side effects the compounds of the invention have been administered to rats 30 minutes before the rats were fed with a test meal comprising barium sulfate. After that it was tested whether gastric emptying and/or gastrointestinal transit in these rats was affected by the presence of these compounds.
The effects of the compounds Example 1 and Example 2 on gastric emptying and gastrointestinal transit in conscious rats has been investigated as described below.
Wistar rats of both sexes weighing 130-160 g (ages: male 7 wk, female 8 wk) were used. The animals are obtained from an approved local distributor, a minimum of four days quarantine is required before use, during which time the animals are maintained under routine animal care procedures. Groups of up to 5 animals are housed in cages in a room with controlled temperature and humidity and a light/dark cycle with the lights on from 6 a.m. to 6 p.m. The animals have access to normal rodent chow and water ad libitum. The animals are transported to the laboratory on the day of experimentation.
Gastric emptying as well as small intestinal propulsion are determined using a barium sulfate test meal.
Five rats Crl:WI(Han) of each sex (n=10) were used. The animals were deprived of food 17 h prior to the experiment but allowed free access to water. The drug under investigation (drug was suspended to the concentration of 10 ml/kg body weight in 0.5% Natrosol solution) or the negative control (vehicle alone was given 10 ml/kg body weight) was administered 30 min. (p.o.) before the test meal at doses calculated to be 3-fold, 10-fold or 30-fold the ED50 found in efficacy studies in the rat.
The test meal (suspension of 7.5 g barium sulfate in 10 ml salt-free water) is given orally by gavage at a dose of 2 ml/100 g body weight. Thirty minutes after the administration of the test meal the animals were killed in deep isoflurane anaesthesia by cervical dislocation. The stomach and the intestine were then exposed by laparatomy and removed.
The removed stomach was weighed, then incised, the contents removed and the empty stomach is weighed again.
The length of gut traversed with barium sulfate in relation to the whole length of the gut is determined by direct measurements using a ruler.
The gastric content was calculated from the weight difference between the filled and empty stomach and normalized to 100 g body weight. Thus, an increase in weight difference indicated an impaired gastric emptying, whereas a decrease in weight difference indicated an enhanced gastric emptying.
The length of gut traversed with barium sulphate (as judged by visual inspection) in relation to the whole length of the gut (from the pylorus to the rectum) is determined by direct measurements using a ruler.
Intestinal transit is calculated as the percentage movement of barium sulphate in the intestine in relation to the whole length of the gut. Consequently an increased intestinal transit length indicated an accelerated intestinal transit whereas a decreased intestinal transit length indicated decelerated intestinal transit.
Data are expressed as mean±standard deviation (SD). For each dose, comparisons were performed using an analysis of variance (ANOVA) and a post hoc Dunnett test to compare the various groups to the controls when the ANOVA was significant. p<0.05 was considered significant.

For data set [1], the system named is LPS-induced neutrophil influx into bronchoalveolar lavage fluid of male Wistar rats. The data set is described as follows: LPS-induced lung inflammation model: inhibition of LPS-induced neutrophil influx into bronchoalveolar lavage fluid. The format is in vivo, rat. The note with it: oral by gavage, BALF 4 hours after end of LPS exposure. The procedure: The anti-inflammatory activity of Examples 1 and 2 and of Prior art compounds A and D was assessed in an in vivo LPS-induced lung inflammation model in rats.
As a measure of the pharmacological potency of the above mentioned compounds the half-maximal effective dose (ED50) in regard to the inhibition of lipopolysaccharide-induced (LPS-induced) neutrophil influx into the bronchoalveolar lavage fluid (BALF) was determined by assessing the dose response relationship. Bacterial endotoxins (lipopolysaccharides [LPS]) are components of the outer bacterial cell membrane which play an important role in the pathogenesis of infections with gram-negative bacteria. It is known that inhalation of such aerosolized LPS induces a dose-dependent increase in neutrophils to lung tissues and airspaces in rats which may be detected by analyzing the amount of neutrophils in the bronchoalveolar lavage fluid (BALF). […]
Determination of neutrophil content of the BALF was performed using an ADVIA 120 blood hemacytometer (Bayer Diagnostics). Neutrophil data were normalised (Positive Control (=LPS treatment alone)=100%, Negative Control (no LPS treatment, administration of “vehicle only”)=0%) and expressed as percent of LPS control. The ED50 was calculated using a nonlinear fit (with the Graph Pad Prism software and a sigmoidal dose response fit). […]

The text below walks through data of patent US9802954B2, “Piperidino-dihydrothienopyrimidine sulfoxides and their use for treating COPD and asthma” (Boehringer Ingelheim International GmbH, priority 2011, dated 2017).

The structures appear in SMILES notation. “Also recorded” adds a separate entry of the source.

As for `[O-][S+]1CCc2nc(N3CCC(c4ccc(Cl)cc4)CC3)nc(NC3(CO)CCC3)c21` (single isomer, unassigned) [Example 1], the “gastric emptying (weight difference per body weight) compared to negative control” value in the data set on conscious rats (3-fold ED50 dose) is given as “no relevant differences”; in the data set with conscious rats (10-fold ED50 dose), “no relevant differences”; in the data set on conscious rats (30-fold ED50 dose) it was “only a very moderate enhancement of the weight difference per body weight”. In addition, the “gastric emptying compared to negative control” value with conscious rats is recorded as “neither showed a substantially enhanced or impaired gastric emptying”. Moreover, the “intestinal transit compared to negative control” value with conscious rats is reported as “no significant differences”.

With `[O-][S+]1CCc2nc(N3CCC(c4ncc(Cl)cn4)CC3)nc(NC3(CO)CCC3)c21` (single isomer, unassigned) [Example 2], in the data set on conscious rats, the “gastric emptying compared to negative control” value was “neither showed a substantially enhanced or impaired gastric emptying; also recorded: no relevant differences” and the “intestinal transit compared to negative control” value is listed as “no relevant differences”.

In the case of `[O-][S+]1CCc2nc(N3CCC(c4ccc(Cl)cc4)CC3)nc(NC3(CO)CC3)c21` (stereo not drawn) [Prior art compound A], in data set [1], the “ED50 (inhibition of LPS-induced neutrophil influx into BALF)” value came out at 1.13 mg/kg body weight.

As for `[O-][S+]1CCc2nc(N3CCC(c4cccc(Cl)c4)CC3)nc(NC3(CO)CC3)c21` (stereo not drawn) [Prior art compound D], the “ED50 (inhibition of LPS-induced neutrophil influx into BALF)” value in data set [1] is given as 6.66 mg/kg body weight.
